Test results taken from patent US20220056018A1, “SREBP INHIBITORS COMPRISING A THIOPHENE CENTRAL RING” (Capulus Therapeutics, LLC, priority 2019, published 2022).

Experiments:
[1] = system: SREBP; assay: Reporter Screening Assay (SRE-luciferase reporter, HepG2); type: cell-based; settings: Homo sapiens; SRE-luciferase reporter HepG2 cells, 24 hours, 0.01 uM to 10 uM; read-out: I: Reporter Screening Assay (Ave EC50 (nM))
Description: Reporter Screening Assay: This assay was used to evaluate the effect on transcriptional activity SREBP of selected compounds using an SRE-luciferase reporter construct. On day 1, 10,000 cells were seeded in a 96 well (white) plate as per the plate map in Growth media without antibiotics. Cells were incubated at 37° C. for 8 hours. After 8 hours, cells were washed with DPBS for complete removal of FBS. DPBS was completely removed and Growth media was replaced with phenol free treatment medium (90 μl) with different FBS concentrations. The cells were then incubated at 37° C. for 24 hours with varying doses (0.01 uM to 10 uM) of compounds. Then a Luciferase assay was performed.
Reagents for performing Luciferase assay were stored at −20° C. To a tube of lyophilized assay substrate was added 1 mL Substrate Solvent and mixed well. The Substrate tube after reconstitution was covered with aluminum foil so as to keep it protected from light. The assay buffer was thawed to room temperature. To 20 mL Assay Buffer was added 200 μL of reconstituted 100× Substrate and mixed well. The reconstituted substrate as well as the assay solution (buffer+substrate) was protected from light throughout the procedure by keeping it covered with aluminum foil. Using a multi-channel pipette, 100 μL Assay Solution (buffer+substrate) was added directly to each sample well in Plate 1, which was incubated for 30 min (plate was covered with aluminum foil). After 30 min incubation, the plate was read for total luminescence. Each well was read for 2 seconds in a plate luminometer. (Microplate reader Envision Microplate reader from Perkin Elmer). Precaution was taken to incubate plate exactly for 30 min prior to reading on the plate reader.
SREBPv1 Reporter cell line: HepG2—#32251. Growth Medium: MEM (Corning 10-010), 10% FBS, 1% GlutaMax (Invitrogen Catalog #35050061), […] (Invitrogen Catalog # A1113803) and 1% Penicillin-Streptomycin (Pen-Strep). Treatment Media: Phenol-free MEM (Invitrogen Catalog #51200-038) and 1% GlutaMax (Invitrogen Catalog #35050061). Luciferase Assay: LightSwitch Luciferase Assay Kit (Catalog #32032). LDH assay: Pierce LDH Cytotoxicity Assay Kit (Catalog # SD249616).

[2] = Stability in human liver microsomes; type: in vitro ADME; settings: 37° C., NADPH
Description: Half-Life Human Microsomes:
(§1) Compounds were evaluated for stability in human liver microsomes. A 10 mM stock solution of the compound being evaluated was prepared in DMSO and diluted with water:acetonitrile (1:1) to a concentration of 1 mM. A working concentration of 100 μM was prepared by further dilution with water:acetonitrile (1:1). To make the preincubation mixture, 2.5 μL of the diluted compound was combined with 75 μL of human liver microsomes at 3.33 mg/mL, and 85 μL of 100 mM potassium phosphate buffer, and this mixture was pre-incubated for 10 min at 37° C. To make the 60 minute mixture without cofactor, 32.5 μL of the preincubation mixture was combined with 17.5 μL of 100 mM potassium phosphate buffer and incubated for 60 min at 37° C. To make the 0 min sample with cofactor (NADPH), 16.25 μL of the preincubation mixture was combined with 200 μL of acetonitrile containing internal standard and 8.75 μL of cofactor (NADPH). To make the incubation mixture, 62 μL of cofactor (2.85 mM) was combined with the remaining incubation mixture, and incubated for 60 min at 37° C. To prepare the sample mixture to be evaluated, 25 μL incubation mixture was combined with 200 μL of acetonitrile containing internal standard and vortexed for 5 min at 1200 rpm, then centrifuged for 10 min at 4000 rpm. The supernatant was diluted 2 fold with water and injected on LC-MS/MS. The sample mixture was evaluated by LC-MS/MS using 10 mM ammonium acetate with 0.100 FA as the aqueous mobile phase, and methanol as the organic mobile phase.

[3] = Stability in mouse liver microsomes; type: in vitro ADME
Description: as §1
Half-Life Mouse Microsomes:
Compounds were evaluated in mouse liver microsomes following a similar procedure as described above for human liver microsomes. A similar procedure could be used to evaluate compounds in rat liver microsomes.

Row | EC50 [1] [nM] | percent of compound remaining after 60 min in human liver microsomes [2] | percent parent remaining after 60 min in liver microsomes [3] | SMILES
1 | < 249 | + (0-30 = +) | ++ (30.1-60 = ++) | CC(C)(CO)c1cc(-c2csc(-c3ccc(NS(=O)(=O)C(F)(F)F)cc3Cl)c2)ccn1 [Compound I-8940, N-(3-chloro-4-(4-(2-(1-hydroxy-2-methylpropan-2-yl)pyridin-4-yl)thiophen-2-yl)phenyl)-1,1,1-trifluoromethanesulfonamide]
2 | > 500 | +++ (>60.1 = +++) | +++ (>60.1 = +++) | CS(=O)(=O)Nc1ccc(-c2cc(-c3ccnc(O[C@@H]4COC[C@@H]4O)c3)cs2)c(Cl)c1 [Compound I-9108, N-(3-chloro-4-(4-(2-(((3R,4S)-4-hydroxytetrahydrofuran-3-yl)oxy)pyridin-4-yl)thiophen-2-yl)phenyl)methanesulfonamide]
3 | > 500 | +++ (>60.1 = +++) | +++ (>60.1 = +++) | CC(C)(C)c1cc(-c2csc(-c3ccc(NC(=O)NC4CCC(O)CC4)cc3Cl)c2)ccn1 (stereo not drawn) [Compound I-8742, 1-(4-(4-(2-(tert-butyl)pyridin-4-yl)thiophen-2-yl)-3-chlorophenyl)-3-(4-hydroxycyclohexyl)urea]
4 | < 249 | ++ (30.1-60 = ++) | ++ (30.1-60 = ++) | CC(C)NS(=O)(=O)Nc1ccc(-c2cc(-c3ccnc(C(C)(C)CO)c3)cs2)c(Cl)c1 [Compound I-8941]
5 |  | ++ (30.1-60 = ++) | +++ (>60.1 = +++) | CS(=O)(=O)Nc1ccc(-c2cc(-c3ccnc(OCC4COCCO4)c3)cs2)c(Cl)c1 (stereo not drawn) [Compound I-9113, N-(4-(4-(2-((1,4-dioxan-2-yl)methoxy)pyridin-4-yl)thiophen-2-yl)-3-chlorophenyl)methanesulfonamide]
6 |  | + (0-30 = +) | +++ (>60.1 = +++) | CC(C)NS(=O)(=O)Nc1ccc(-c2csc(-c3ccnc(C(C)(C)CO)c3)c2)c(Cl)c1 [Compound I-9162, 2-(4-(4-(2-chloro-4-(((isopropylamino)thio)amino)phenyl)thiophen-2-yl)pyridin-2-yl)-2-methylpropan-1-ol, S,S-dioxide]

The next lines start with the compound.

Row | SMILES | EC50 [1] [nM] | percent of compound remaining after 60 min in human liver microsomes [2] | percent parent remaining after 60 min in liver microsomes [3]
7 | CC(C)OC(=O)Nc1ccc(-c2cc(-c3ccnc(C4CC4)c3)cs2)c(Cl)c1 [Compound I-8966, Isopropyl (3-chloro-4-(4-(2-cyclopropylpyridin-4-yl)thiophen-2-yl)phenyl)carbamate] | < 249 | +++ (>60.1 = +++) | +++ (>60.1 = +++)
8 | CN(C(=O)OC1CC1)c1ccc(-c2cc(-c3ccnc(C4CC4)c3)cs2)c(Cl)c1 [Compound I-9038, cyclopropyl (3-chloro-4-(4-(2-cyclopropylpyridin-4-yl)thiophen-2-yl)phenyl)(methyl)carbamate] | < 249 | +++ (>60.1 = +++) | +++ (>60.1 = +++)
9 | CC(C)S(=O)(=O)c1ccc(-c2cc(-c3ccnc(C(C)(C)C)c3)cs2)cc1 [Compound I-8728, 2-(tert-butyl)-4-(5-(4-(isopropylsulfonyl)phenyl)thiophen-3-yl)pyridine] | 250 to 500 | ++ (30.1-60 = ++) | +++ (>60.1 = +++)
10 | CC(C)(C)c1cc(-c2csc(-c3ccc(NC(=O)N4CCC(O)CC4)cc3Cl)c2)ccn1 [Compound I-8736, N-(4-(4-(2-(tert-butyl)pyridin-4-yl)thiophen-2-yl)-3-chlorophenyl)-4-hydroxypiperidine-1-carboxamide] | 250 to 500 | +++ (>60.1 = +++) | +++ (>60.1 = +++)
11 | CS(=O)(=O)Nc1ccc(-c2cc(-c3ccnc(OCCC4(O)COC4)c3)cs2)c(Cl)c1 [Compound I-9112, N-(3-chloro-4-(4-(2-(2-(3-hydroxyoxetan-3-yl)ethoxy)pyridin-4-yl)thiophen-2-yl)phenyl)methanesulfonamide] |  | +++ (>60.1 = +++) | +++ (>60.1 = +++)
12 | CC(C)(O)Cc1cc(-c2cc(-c3ccc(NS(C)(=O)=O)cc3Cl)sc2F)ccn1 [Compound I-9085, N-(3-chloro-4-(5-fluoro-4-(2-(2-hydroxy-2-methylpropyl)pyridin-4-yl)thiophen-2-yl)phenyl)methanesulfonamide] | > 500 | +++ (>60.1 = +++) | +++ (>60.1 = +++)
13 | CC(C)(CO)c1cc(-c2csc(-c3ccc(NC(=O)N4CCC(O)CC4)cc3Cl)c2)ccn1 [Compound I-8926, N-(3-chloro-4-(4-(2-(1-hydroxy-2-methylpropan-2-yl)pyridin-4-yl)thiophen-2-yl)phenyl)-4-hydroxypiperidine-1-carboxamide] | < 249 | ++ (30.1-60 = ++) | +++ (>60.1 = +++)
14 | CC(O)(CO)c1cc(-c2csc(-c3ccc(NS(C)(=O)=O)cc3Cl)c2)ccn1 (stereo not drawn) [Compound I-9088, N-(3-chloro-4-(4-(2-(1,2-dihydroxypropan-2-yl)pyridin-4-yl)thiophen-2-yl)phenyl)methanesulfonamide] | > 500 | +++ (>60.1 = +++) | +++ (>60.1 = +++)
15 | CN(C(=O)OC1CC1)c1ccc(-c2cc(-c3ccnc(C4(CO)CC4)c3)cs2)c(Cl)c1 [Compound I-9042, Cyclopropyl (3-chloro-4-(4-(2-(1-(hydroxymethyl)cyclopropyl)pyridin-4-yl)thiophen-2-yl)phenyl)(methyl)carbamate] | < 249 | ++ (30.1-60 = ++) | +++ (>60.1 = +++)
16 | CC(C)(CO)c1cc(-c2cc(-c3ccc(NC(=O)OC4CC4)cc3Cl)cs2)ccn1 [Compound I-9161, Cyclopropyl(3-chloro-4-(5-(2-(1-hydroxy-2-methylpropan-2-yl)pyridin-4-yl)thiophen-3-yl)phenyl)carbamate] |  | ++ (30.1-60 = ++) | ++ (30.1-60 = ++)
17 | O=S(=O)(Nc1ccc(-c2cc(-c3ccnc(C4(CO)CC4)c3)cs2)c(Cl)c1)NC1CC1 [Compound I-9090] |  | ++ (30.1-60 = ++) | ++ (30.1-60 = ++)
18 | CS(=O)(=O)Nc1ccc(-c2cc(-c3ccnc(O[C@@H]4CCC[C@@H]4O)c3)cs2)c(Cl)c1 [Compound I-9111, N-(3-chloro-4-(4-(2-(((1R,2S)-2-hydroxycyclopentyl)oxy)pyridin-4-yl)thiophen-2-yl)phenyl)methanesulfonamide] |  | +++ (>60.1 = +++) | +++ (>60.1 = +++)
